Structures can show the parent of a compound that is named as a salt.
Target: T1, Microsomal triglyceride transfer protein (MTP) from human small intestine microsome (Homo sapiens, UniProt P55157)
T1 construct: Human small intestine microsome was dialyzed against 10 mM phosphate buffer; tissue Tissue Transforming Technologies, Inc; host or cells: human small intestine microsome
Test: Inhibition test of interliposomal triglyceride (TG) transfer activity by MTP
Format: biochemical
Conditions: purified MTP from human small intestine microsome, 37° C., 1.5 hours
In short: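 DEAE-purified human small intestine MTP (50 μL of 20 μg/mL) incubated 1.5 hours at 37° C with ^14C-triolein donor and unlabelled acceptor SUV liposomes in pH 7.4 Tris buffer with 0.5% BSA. Donor removed on DEAE cellulose; acceptor radioactivity counted, blank-corrected against DMSO control, giving percent inhibition and IC50.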

T1 sequence (P55157 19-894): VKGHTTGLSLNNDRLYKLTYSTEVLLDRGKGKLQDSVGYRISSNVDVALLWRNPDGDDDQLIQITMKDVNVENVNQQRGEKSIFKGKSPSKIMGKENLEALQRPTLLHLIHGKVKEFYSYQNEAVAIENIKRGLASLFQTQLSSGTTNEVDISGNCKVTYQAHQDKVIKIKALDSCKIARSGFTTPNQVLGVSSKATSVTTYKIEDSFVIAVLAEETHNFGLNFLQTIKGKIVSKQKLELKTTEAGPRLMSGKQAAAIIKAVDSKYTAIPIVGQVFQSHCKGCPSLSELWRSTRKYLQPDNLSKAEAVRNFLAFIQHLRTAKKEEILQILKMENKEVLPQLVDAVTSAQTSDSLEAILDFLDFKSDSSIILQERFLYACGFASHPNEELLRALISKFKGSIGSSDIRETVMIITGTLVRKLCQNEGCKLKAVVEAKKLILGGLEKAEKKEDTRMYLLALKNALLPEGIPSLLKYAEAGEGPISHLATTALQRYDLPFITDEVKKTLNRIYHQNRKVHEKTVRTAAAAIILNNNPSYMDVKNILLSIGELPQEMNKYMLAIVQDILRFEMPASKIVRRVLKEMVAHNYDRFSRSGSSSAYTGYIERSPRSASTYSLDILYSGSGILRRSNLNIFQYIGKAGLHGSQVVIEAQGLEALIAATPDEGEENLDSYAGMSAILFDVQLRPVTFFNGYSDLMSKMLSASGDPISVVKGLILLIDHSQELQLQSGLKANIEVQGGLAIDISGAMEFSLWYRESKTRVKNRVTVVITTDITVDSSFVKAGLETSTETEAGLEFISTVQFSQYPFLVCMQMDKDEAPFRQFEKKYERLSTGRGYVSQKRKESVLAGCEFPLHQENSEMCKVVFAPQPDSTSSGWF
T1 sequence (P07237 18-508 partner): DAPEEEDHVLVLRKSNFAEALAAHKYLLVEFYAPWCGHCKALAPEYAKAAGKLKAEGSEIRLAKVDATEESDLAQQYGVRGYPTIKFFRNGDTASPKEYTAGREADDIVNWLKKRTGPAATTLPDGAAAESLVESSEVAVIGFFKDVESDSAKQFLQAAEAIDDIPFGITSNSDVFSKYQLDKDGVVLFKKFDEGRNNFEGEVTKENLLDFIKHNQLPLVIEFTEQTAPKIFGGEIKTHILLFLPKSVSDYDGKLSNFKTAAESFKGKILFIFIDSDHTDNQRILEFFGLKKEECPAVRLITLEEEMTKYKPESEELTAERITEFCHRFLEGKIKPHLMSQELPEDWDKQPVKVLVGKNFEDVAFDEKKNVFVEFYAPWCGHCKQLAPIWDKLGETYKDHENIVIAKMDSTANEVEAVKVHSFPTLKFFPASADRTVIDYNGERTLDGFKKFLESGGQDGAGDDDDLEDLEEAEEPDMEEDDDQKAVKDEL

SMILES | IC50 [nM]
CCOC(=O)c1cc(C)c(OC(=O)CCCc2ccc(NC(=O)c3ccc(C)nc3-c3ccc(C(F)(F)F)cc3)c(C(=O)N(C)C)c2)c(C(=O)OC)c1 [Compound 1-52, 4-[4-(3-dimethylcarbamoyl-4-{[6-methyl-2-(4-trifluoromethylphenyl)pyridine-3-carbonyl]amino}phenyl)butyryloxy]-5-methylisophthalic acid 1-ethyl ester 3-methyl ester] | < 10
CCOC(=O)c1ccc(OC(=O)CCCc2ccc(NC(=O)c3ccc(C)nc3-c3ccc(C(F)(F)F)cc3)c(C(=O)N(C)C)c2)cc1 [Compound 1-71, 4-[4-(3-dimethylcarbamoyl-4-{[6-methyl-2-(4-trifluoromethylphenyl)pyridine-3-carbonyl]amino}phenyl)butyryloxy]benzoic acid ethyl ester] | < 10
COC(=O)c1ccc(OC(=O)CCCc2ccc(NC(=O)c3ccccc3-c3ccc(C(F)(F)F)cc3)c(C(=O)N(C)C)c2)c(OC)c1 [Compound 1-12, 4-(4-{3-dimethylcarbamoyl-4-[(4′-trifluoromethylbiphenyl-2-carbonyl)amino]phenyl}butyryloxy)-3-methoxybenzoic acid methyl ester] | < 10
CC(C)OC(=O)c1ccc(OC(=O)CCCc2ccc(NC(=O)c3cccnc3-c3ccc(C(F)(F)F)cc3)c(C(=O)N(C)C)c2)cc1 [Compound 1-31, 4-[4-(3-dimethylcarbamoyl-4-{[2-(4-trifluoromethylphenyl)pyridine-3-carbonyl]amino}phenyl)butyryloxy]benzoic acid isopropyl ester] | 10 to 100
Cc1ccc(C(=O)Nc2ccc(CCCC(=O)Oc3ccc(C(=O)OC(C)C)cc3)cc2C(=O)N(C)C)c(-c2ccc(C(F)(F)F)cc2)n1 [Compound 1-63, 4-[4-(3-dimethylcarbamoyl-4-{[6-methyl-2-(4-trifluoromethylphenyl)pyridine-3-carbonyl]amino}phenyl)butyryloxy]benzoic acid isopropyl ester sulfate] | < 10
COC(=O)c1cc(C)c(OC(=O)CCCc2ccc(NC(=O)c3ccc(C)nc3-c3ccc(C(F)(F)F)cc3)c(C(=O)N(C)C)c2)c(F)c1 [Compound 1-41, 4-[4-(3-dimethylcarbamoyl-4-{[6-methyl-2-(4-trifluoromethylphenyl)pyridine-3-carbonyl]amino}phenyl)butyryloxy]-3-fluoro-5-methylbenzoic acid methyl ester] | < 10
COC(=O)c1ccc(OC(=O)CCCc2ccc(NC(=O)c3ccncc3-c3ccc(C(F)(F)F)cc3)c(C(=O)N(C)C)c2)cc1 [Compound 1-30, 4-[4-(3-dimethylcarbamoyl-4-{[3-(4-trifluoromethylphenyl)pyridine-4-carbonyl]amino}phenyl)butyryloxy]benzoic acid methyl ester] | 10 to 100
COC(=O)c1ccc(OC(=O)CCCc2ccc(NC(=O)c3ccccc3-c3ccc(C(F)(F)F)cc3)c(C(=O)N(C)C)c2)c(C(F)(F)F)c1 [Compound 1-20, 4-(4-{3-dimethylcarbamoyl-4-[(4′-trifluoromethylbiphenyl-2-carbonyl)amino]phenyl}butyryloxy)-3-trifluoromethylbenzoic acid methyl ester] | 10 to 100

More lines, now with the values ahead:

IC50 [nM] | SMILES
< 10 | CN(C)C(=O)c1cc(CCCC(=O)Oc2ccc(C(=O)OCCOCc3ccccc3)cc2)ccc1NC(=O)c1ccccc1-c1ccc(C(F)(F)F)cc1 [Compound 1-89, 4-[4-(3-dimethylcarbamoyl-4-{(4′-trifluoromethylbiphenyl-2-carbonyl)amino}phenyl)butyryloxy]benzoic acid 2-benzyloxyethyl ester]
< 10 | CN(C)C(=O)c1cc(CCCC(=O)Oc2ccc(C(=O)OCc3cccc(Cl)c3)cc2)ccc1NC(=O)c1ccccc1-c1ccc(C(F)(F)F)cc1 [Compound 1-87, 4-[4-(3-dimethylcarbamoyl-4-{(4′-trifluoromethylbiphenyl-2-carbonyl)amino}phenyl)butyryloxy]benzoic acid 3-chlorobenzyl ester]
< 10 | CCCOC(=O)c1cc(Cl)c(OC(=O)CCCc2ccc(NC(=O)c3ccc(C)nc3-c3ccc(C(F)(F)F)cc3)c(C(=O)N(C)C)c2)c(OC)c1 [Compound 1-75, 3-chloro-4-[4-(3-dimethylcarbamoyl-4-{[6-methyl-2-(4-trifluoromethylphenyl)pyridine-3-carbonyl]amino}phenyl)butyryloxy]-5-methoxybenzoic acid propyl ester]
< 10 | CN(C)C(=O)c1cc(CCCC(=O)Oc2ccc(C(=O)OCc3cccnc3)cc2)ccc1NC(=O)c1ccccc1-c1ccc(C(F)(F)F)cc1 [Compound 1-83, 4-[4-(3-dimethylcarbamoyl-4-{(4′-trifluoromethylbiphenyl-2-carbonyl)amino}phenyl)butyryloxy]benzoic acid pyridin-3-ylmethyl ester]
< 10 | CN(C)C(=O)Cn1nnc(-c2ccc(OC(=O)CCCc3ccc(NC(=O)c4ccccc4-c4ccc(C(F)(F)F)cc4)c(C(=O)N(C)C)c3)cc2)n1 [Compound 1-105, 4-(3-dimethylcarbamoyl-4-{(4′-trifluoromethylbiphenyl-2-carbonyl)amino}phenyl)butyric acid 4-(2-dimethylcarbamoylmethyl-2H-tetrazol-5-yl)phenyl ester]
< 10 | COc1cccc(COC(=O)c2ccc(OC(=O)CCCc3ccc(NC(=O)c4ccccc4-c4ccc(C(F)(F)F)cc4)c(C(=O)N(C)C)c3)cc2)c1 [Compound 1-97, 4-[4-(3-dimethylcarbamoyl-4-{(4′-trifluoromethylbiphenyl-2-carbonyl)amino}phenyl)butyryloxy]benzoic acid 3-methoxybenzyl ester]
< 10 | CN(C)C(=O)c1cc(CCCC(=O)Oc2ccc(C(=O)OCCCO)cc2)ccc1NC(=O)c1ccccc1-c1ccc(C(F)(F)F)cc1 [Compound 1-92, 4-[4-(3-dimethylcarbamoyl-4-{(4′-trifluoromethylbiphenyl-2-carbonyl)amino}phenyl)butyryloxy]benzoic acid 3-hydroxypropyl ester]
< 10 | Cc1cccc(COC(=O)c2ccc(OC(=O)CCCc3ccc(NC(=O)c4ccc(C)nc4-c4ccc(C(F)(F)F)cc4)c(C(=O)N(C)C)c3)cc2)n1 [Compound 1-100, 4-[4-(3-dimethylcarbamoyl-4-{[6-methyl-2-(4-trifluoromethylphenyl)pyridine-3-carbonyl]amino}phenyl)butyryloxy]benzoic acid 6-methylpyridin-2-ylmethyl ester]
< 10 | CN(C)C(=O)c1cc(CCCC(=O)Oc2ccc(C(=O)OCCN3CCCC3=O)cc2)ccc1NC(=O)c1ccccc1-c1ccc(C(F)(F)F)cc1 [Compound 1-91, 4-[4-(3-dimethylcarbamoyl-4-{(4′-trifluoromethylbiphenyl-2-carbonyl)amino}phenyl)butyryloxy]benzoic acid 2-(2-oxopyrrolidin-1-yl)ethyl ester]
< 10 | CN(C)C(=O)c1cc(CCCC(=O)Oc2ccc(C(=O)OCc3ccc(Cl)cc3)cc2)ccc1NC(=O)c1ccccc1-c1ccc(C(F)(F)F)cc1 [Compound 1-79, 4-[4-(3-dimethylcarbamoyl-4-{(4′-trifluoromethylbiphenyl-2-carbonyl)amino}phenyl)butyryloxy]benzoic acid 4-chlorobenzyl ester]
